As a reminder, the pEC50 is the negative decadic logarithm of the EC50, by convention in mol/L. Read a low pEC50 as a large EC50.

pEC50: −log10 of the molar value. Non-standard residues stand in square brackets, D forms with d. Residues, ends and D or L forms follow the SMILES beside them. 1Nal = N[C@@H](Cc1cccc2ccccc12)C(=O)O; β3hI = CC[C@H](C)[C@H](N)CC(=O)O; Nle = CCCC[C@H](N)C(=O)O; Aib = CC(C)(N)C(=O)O

Six compounds from patent US20110195900A1, “PEPTIDIC PTH RECEPTOR AGONISTS” (FERRING B.V., priority 2008, published 2011) can be followed below.

One assay concerns the target T1, human PTH-1 receptor (Homo sapiens, UniProt Q03431).
T1 construct: expressed in transfected cells; host or cells: HEK-293
T1 sequence (Q03431 27-593): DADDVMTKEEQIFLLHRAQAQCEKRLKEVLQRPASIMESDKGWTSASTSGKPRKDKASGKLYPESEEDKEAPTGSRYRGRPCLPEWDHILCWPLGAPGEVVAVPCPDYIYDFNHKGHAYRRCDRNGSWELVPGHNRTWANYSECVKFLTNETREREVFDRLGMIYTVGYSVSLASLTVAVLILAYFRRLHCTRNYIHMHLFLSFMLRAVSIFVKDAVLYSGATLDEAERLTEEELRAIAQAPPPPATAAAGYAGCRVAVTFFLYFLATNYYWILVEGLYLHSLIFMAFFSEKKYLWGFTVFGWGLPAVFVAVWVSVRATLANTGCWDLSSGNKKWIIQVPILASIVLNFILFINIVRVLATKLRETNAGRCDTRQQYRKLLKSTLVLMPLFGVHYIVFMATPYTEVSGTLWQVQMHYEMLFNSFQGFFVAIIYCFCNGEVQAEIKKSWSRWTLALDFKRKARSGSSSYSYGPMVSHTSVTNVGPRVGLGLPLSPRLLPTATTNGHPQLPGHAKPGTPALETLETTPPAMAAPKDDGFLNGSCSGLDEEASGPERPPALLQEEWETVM
The assay can be described thus: Reporter gene assay (CRE-luciferase) for agonist activity in transiently transfected HEK-293 cells. As to conditions: for hPTHR-2/hPTHR-1: Table 3, selectivity for hPTH-1 receptor over hPTH-2 receptor. It is filed as cell-based. In short, it runs like this: (§1)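 Selectivity came from luciferase transcriptional reporter assays expressing human PTH-2 receptor. PTH-1 agonism used transiently transfected HEK-293 cells carrying SV40-promoter receptor and cAMP-responsive-element luciferase; 4-5 h compound exposure, lysis, luminescence, non-linear-regression EC50/efficacy; ≥3 independent runs, PTH (1-34) control each.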
(Reporter assays use an easily measured gene product as a stand-in for the process of interest.)

The next assay concerns the target T2, human PTH-2 receptor (Homo sapiens, UniProt P49190).
T2 construct: expressed in transfected cells
The assay can be described thus: Luciferase-based transcriptional reporter gene assay for selectivity. It is filed as cell-based. The procedure, abridged: as §1

T2 sequence (P49190 25-550): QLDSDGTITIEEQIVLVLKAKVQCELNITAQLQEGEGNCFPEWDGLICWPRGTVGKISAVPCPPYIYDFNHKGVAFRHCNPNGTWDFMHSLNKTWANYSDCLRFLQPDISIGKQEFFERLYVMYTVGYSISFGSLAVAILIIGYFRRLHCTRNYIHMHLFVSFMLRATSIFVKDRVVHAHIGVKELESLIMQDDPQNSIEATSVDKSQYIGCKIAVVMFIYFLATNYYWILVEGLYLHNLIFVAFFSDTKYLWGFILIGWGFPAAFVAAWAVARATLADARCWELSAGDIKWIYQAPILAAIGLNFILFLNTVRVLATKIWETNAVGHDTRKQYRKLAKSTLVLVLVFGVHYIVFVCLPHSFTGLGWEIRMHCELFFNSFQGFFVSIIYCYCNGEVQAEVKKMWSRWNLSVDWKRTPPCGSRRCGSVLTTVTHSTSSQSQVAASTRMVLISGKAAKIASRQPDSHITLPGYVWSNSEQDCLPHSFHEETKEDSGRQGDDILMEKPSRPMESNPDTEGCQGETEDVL

As for `CCCC[C@H](NC(=O)[C@H](CC(C)C)NC(=O)[C@H](CCC(N)=O)NC(=O)[C@@H](NC(=O)[C@H](CCC(=O)O)NC(=O)[C@H](CO)NC(=O)[C@@H](NC(=O)[C@@H](N)CO)C(C)C)[C@@H](C)CC)C(=O)N[C@@H](Cc1c[nH]cn1)C(=O)N[C@@H](CC(N)=O)C(=O)N[C@@H](CC(C)C)C(=O)NC(C)(C)C(=O)N[C@@H](CCCCN)C(=O)N[C@@H](Cc1c[nH]cn1)C(=O)N[C@@H](CC(C)C)C(=O)N[C@@H](CC(N)=O)C(=O)N[C@@H](CO)C(=O)N[C@H](CC(=O)N[C@@H](CCC(=O)O)C(=O)N[C@@H](CCCNC(=N)N)C(=O)N[C@H](C(=O)N[C@@H](CCC(=O)O)C(=O)N[C@@H](Cc1cccc2ccccc12)C(=O)N[C@@H](CC(C)C)C(=O)N[C@@H](CCCNC(=N)N)C(=O)N[C@@H](CCCCN)C(=O)N[C@@H](CC(C)C)C(=O)N[C@@H](CC(C)C)C(=O)N[C@@H](CCC(N)=O)C(=O)N[C@@H](CC(=O)O)C(=O)N[C@H](C(=O)N[C@@H](Cc1c[nH]cn1)C(=O)N[C@@H](CC(N)=O)C(=O)N[C@@H](Cc1ccccc1)C(N)=O)C(C)C)C(C)C)[C@@H](C)CC` [SEQ ID NO: 32, [Nle^8, Aib^12, β-hIle^18,1-Nal^23, Leu^27] hPTH (1-34)-NH2] (H-SVSEIQL[Nle]HNL[Aib]KHLNS[β3hI]ERVE[1Nal]LRKLLQDVHNF-NH2), on human PTH-1 receptor (ratio of EC50 values), the hPTHR-2/hPTHR-1 was 55. At human PTH-2 receptor, the pEC50 was 7.89.

Turning to `CCCC[C@H](NC(=O)[C@H](CC(C)C)NC(=O)[C@H](CCC(N)=O)NC(=O)[C@@H](NC(=O)[C@H](CCC(=O)O)NC(=O)[C@H](CO)NC(=O)[C@@H](NC(=O)[C@@H](N)CO)C(C)C)[C@@H](C)CC)C(=O)N[C@@H](Cc1c[nH]cn1)C(=O)N[C@@H](CC(N)=O)C(=O)N[C@@H](CC(C)C)C(=O)NCC(=O)N[C@@H](CCCCN)C(=O)N[C@@H](Cc1c[nH]cn1)C(=O)N[C@@H](CC(C)C)C(=O)N[C@@H](CC(N)=O)C(=O)N[C@@H](CO)C(=O)N[C@H](CC(=O)N[C@@H](CCC(=O)O)C(=O)N[C@@H](CCCNC(=N)N)C(=O)N[C@H](C(=O)N[C@@H](CCC(=O)O)C(=O)N[C@@H](Cc1cccc2ccccc12)C(=O)N[C@@H](CC(C)C)C(=O)N[C@@H](CCCNC(=N)N)C(=O)N[C@@H](CCCCN)C(=O)N[C@@H](CC(C)C)C(=O)N[C@@H](CC(C)C)C(=O)N[C@@H](CCC(N)=O)C(=O)N[C@@H](CCCNC(=N)N)C(=O)N[C@H](C(=O)N[C@@H](Cc1c[nH]cn1)C(=O)N[C@@H](CC(N)=O)C(=O)N[C@@H](Cc1ccccc1)C(N)=O)C(C)C)C(C)C)[C@@H](C)CC` [SEQ ID NO: 35, [Nle^8, β-hIle^18,1-Nal^23, Leu^27, Arg^30] hPTH (1-34)-NH2] (H-SVSEIQL[Nle]HNLGKHLNS[β3hI]ERVE[1Nal]LRKLLQRVHNF-NH2; N-terminus assumed), the negative logarithm of the EC50 (pEC50) on human PTH-1 receptor is 9.74; on human PTH-2 receptor, 8.15. Also, at human PTH-1 receptor (ratio of EC50 values), the hPTHR-2/hPTHR-1 is listed as 40.

Regarding `CCCC[C@H](NC(=O)[C@H](CC(C)C)NC(=O)[C@H](CCC(N)=O)NC(=O)[C@@H](NC(=O)[C@H](CCC(=O)O)NC(=O)[C@H](CO)NC(=O)[C@@H](NC(=O)C(C)(C)N)C(C)C)[C@@H](C)CC)C(=O)N[C@@H](Cc1c[nH]cn1)C(=O)N[C@@H](CC(N)=O)C(=O)N[C@@H](CC(C)C)C(=O)NCC(=O)N[C@@H](CCCCN)C(=O)N[C@@H](Cc1c[nH]cn1)C(=O)N[C@@H](CC(C)C)C(=O)N[C@@H](CC(N)=O)C(=O)N[C@@H](CO)C(=O)N[C@H](CC(=O)N[C@@H](CCC(=O)O)C(=O)N[C@@H](CCCNC(=N)N)C(=O)N[C@H](C(=O)N[C@@H](CCC(=O)O)C(=O)N[C@@H](Cc1cccc2ccccc12)C(=O)N[C@@H](CC(C)C)C(=O)N[C@@H](CCCNC(=N)N)C(=O)N[C@@H](CCCCN)C(=O)N[C@@H](CC(C)C)C(=O)N[C@@H](CC(C)C)C(=O)N[C@@H](CCC(N)=O)C(=O)N[C@@H](CC(=O)O)C(=O)N[C@H](C(=O)N[C@@H](Cc1c[nH]cn1)C(=O)N[C@@H](CC(N)=O)C(=O)N[C@@H](Cc1ccccc1)C(N)=O)C(C)C)C(C)C)[C@@H](C)CC` [SEQ ID NO: 36, [Aib^1, Nle^8, β-hIle^18,1-Nal^23, Leu^27] hPTH (1-34)-NH2] (H-[Aib]VSEIQL[Nle]HNLGKHLNS[β3hI]ERVE[1Nal]LRKLLQDVHNF-NH2), the negative logarithm of the EC50 (pEC50) on human PTH-1 receptor was 10.40; at human PTH-2 receptor, 7.80. Moreover, on human PTH-1 receptor (ratio of EC50 values), the hPTHR-2/hPTHR-1 is reported as 372. The “Selectivity hPTHR-2/hPTHR-1” value at human PTH-1 receptor (Table 4 comparison data, ratio of EC50 values) is listed as 372.

As for `CCCC[C@H](NC(=O)[C@H](CC(C)C)NC(=O)[C@H](CCC(N)=O)NC(=O)[C@@H](NC(=O)[C@H](CCC(=O)O)NC(=O)[C@H](CO)NC(=O)[C@@H](NC(=O)[C@@H](N)CO)C(C)C)[C@@H](C)CC)C(=O)N[C@@H](Cc1c[nH]cn1)C(=O)N[C@@H](CC(N)=O)C(=O)N[C@@H](CC(C)C)C(=O)NCC(=O)N[C@@H](CCCCN)C(=O)N[C@@H](Cc1c[nH]cn1)C(=O)N[C@@H](CC(C)C)C(=O)N[C@@H](CCCCN)C(=O)N[C@@H](CO)C(=O)N[C@H](CC(=O)N[C@@H](CCC(=O)O)C(=O)N[C@@H](CCCNC(=N)N)C(=O)N[C@H](C(=O)N[C@@H](CCC(=O)O)C(=O)N[C@@H](Cc1cccc2ccccc12)C(=O)N[C@@H](CC(C)C)C(=O)N[C@@H](CCCNC(=N)N)C(=O)N[C@@H](CCCCN)C(=O)N[C@@H](CC(C)C)C(=O)N[C@@H](CC(C)C)C(=O)N[C@@H](CCC(N)=O)C(=O)N[C@@H](CCCNC(=N)N)C(=O)N[C@H](C(=O)N[C@@H](Cc1c[nH]cn1)C(=O)N[C@@H](CC(N)=O)C(=O)N[C@@H](Cc1ccccc1)C(N)=O)C(C)C)C(C)C)[C@@H](C)CC` [SEQ ID NO: 37, [Nle^8, Lys^16, β-hIle^18,1-Nal^23, Leu^27, Arg^30] hPTH (1-34)-NH2] (H-SVSEIQL[Nle]HNLGKHLKS[β3hI]ERVE[1Nal]LRKLLQRVHNF-NH2), the pEC50 on human PTH-1 receptor is 9.85; on human PTH-2 receptor it was 7.85. In addition, the hPTHR-2/hPTHR-1 on human PTH-1 receptor (ratio of EC50 values) is on record as 97.

Regarding `CCCC[C@H](NC(=O)[C@H](CC(C)C)NC(=O)[C@H](CCC(N)=O)NC(=O)[C@@H](NC(=O)[C@H](CCC(=O)O)NC(=O)[C@H](CO)NC(=O)[C@@H](NC(=O)C(C)(C)N)C(C)C)[C@@H](C)CC)C(=O)N[C@@H](Cc1c[nH]cn1)C(=O)N[C@@H](CO)C(=O)N[C@@H](CC(C)C)C(=O)NCC(=O)N[C@@H](CCCCN)C(=O)N[C@@H](Cc1c[nH]cn1)C(=O)N[C@@H](CC(C)C)C(=O)N[C@@H](CCCCN)C(=O)N[C@@H](CO)C(=O)N[C@H](CC(=O)N[C@@H](CCC(=O)O)C(=O)N[C@@H](CCCNC(=N)N)C(=O)N[C@H](C(=O)N[C@@H](CCC(=O)O)C(=O)N[C@@H](Cc1cccc2ccccc12)C(=O)N[C@@H](CC(C)C)C(=O)N[C@@H](CCCNC(=N)N)C(=O)N[C@@H](CCCCN)C(=O)N[C@@H](CC(C)C)C(=O)N[C@@H](CC(C)C)C(=O)N[C@@H](CCC(N)=O)C(=O)N[C@@H](CCCNC(=N)N)C(=O)N[C@H](C(=O)N[C@@H](Cc1c[nH]cn1)C(=O)N[C@@H](CCC(=O)O)C(=O)N[C@@H](Cc1ccccc1)C(N)=O)C(C)C)C(C)C)[C@@H](C)CC` [SEQ ID NO: 38, [Aib^1, Nle^8, Ser^10, Lys^16, β-hIle^18,1-Nal^23, Leu^27, Arg^30, Glu^33] hPTH (1-34)-NH2] (H-[Aib]VSEIQL[Nle]HSLGKHLKS[β3hI]ERVE[1Nal]LRKLLQRVHEF-NH2), the figures for the pEC50 on human PTH-1 receptor and on human PTH-2 receptor were 10.05 and 8.22, respectively. The hPTHR-2/hPTHR-1 on human PTH-1 receptor (ratio of EC50 values) was found to be 61.

As for `CCCC[C@H](NC(=O)[C@H](CC(C)C)NC(=O)[C@H](CCC(N)=O)NC(=O)[C@@H](NC(=O)[C@H](CCC(=O)O)NC(=O)[C@H](CO)NC(=O)[C@@H](NC(=O)C(C)(C)N)C(C)C)[C@@H](C)CC)C(=O)N[C@@H](Cc1c[nH]cn1)C(=O)N[C@@H](CC(N)=O)C(=O)N[C@@H](CC(C)C)C(=O)NCC(=O)N[C@@H](CCCCN)C(=O)N[C@@H](Cc1c[nH]cn1)C(=O)N[C@@H](CC(C)C)C(=O)N[C@@H](CCCCN)C(=O)N[C@@H](CO)C(=O)N[C@H](CC(=O)N[C@@H](CCC(=O)O)C(=O)N[C@@H](CCCNC(=N)N)C(=O)N[C@H](C(=O)N[C@@H](CCC(=O)O)C(=O)N[C@@H](Cc1cccc2ccccc12)C(=O)N[C@@H](CC(C)C)C(=O)N[C@@H](CCCNC(=N)N)C(=O)N[C@@H](CCCCN)C(=O)N[C@@H](CC(C)C)C(=O)N[C@@H](CC(C)C)C(=O)N[C@@H](CCC(N)=O)C(=O)N[C@@H](CCCNC(=N)N)C(=O)N[C@H](C(=O)N[C@@H](Cc1c[nH]cn1)C(=O)N[C@@H](CCC(=O)O)C(=O)N[C@@H](Cc1ccccc1)C(N)=O)C(C)C)C(C)C)[C@@H](C)CC` [SEQ ID NO: 39, [Aib^1, Nle^8, Lys^16, β-hIle^18,1-Nal^23, Leu^27, Arg^30, Glu^33] hPTH (1-34)-NH2] (H-[Aib]VSEIQL[Nle]HNLGKHLKS[β3hI]ERVE[1Nal]LRKLLQRVHEF-NH2; N-terminus assumed), the pEC50 on human PTH-1 receptor is 10.05; at human PTH-2 receptor, 8.22. In addition, the hPTHR-2/hPTHR-1 on human PTH-1 receptor (ratio of EC50 values) amounted to 61.
